Results as given in article PMC9370761, “Anti-Inflammatory Effects of Auranamide and Patriscabratine—Mechanisms and In Silico Studies” (Molecules, 2022).

Tests used:
[1] = test system: IL-1β; experiment: IL-1β ELISA in LPSEc challenged RAW 264.7 cells; type: cell-based, murine; conditions: 10 μM; vs untreated cells; LPSEc alone 4.56 ± 0.13
Experimental: (§1) The anti-inflammatory activity of the test compounds was assessed in E. coli lipopolysaccharide (LPSEc)-induced inflammation in RAW 264.7 cells. Cells (5 × 10^5 cells/well) were incubated for 24 h in a 24-well plate. Then, the cells were challenged with LPSEc (100 ng/mL) for 4 h. The test compounds (10, 1, 0.1, 0.01 and 0.001 µM) or positive control (dimethyl fumarate, 10 μM) were then added and incubated for 24 h. The levels of NO production and pro-inflammatory cytokines (IL-1β, IL-6, IFN-γ and TNF-α) were determined using the supernatant solution. The cell pellet was used to measure the levels of COX-2, NF-κB p65, NRF2, and HO-1.
(§2) Single-Analyte ELISArray kits were used to quantify the pro-inflammatory cytokines (IL-1β, IL-6, IFN-γ and TNF-α) in the cell supernatant following the manufacturer’s instructions. The standard protein (50 μL) or test sample solutions (50 μL) were added to a well (in duplicate) and incubated for 2 h at room temperature. The contents in the well were washed with wash buffer, and then 100 µL of biotinylated detection antibody solution was added and incubated for 1 h at room temperature. […] The optical density was measured at 450/570 nm using a Spectramax microplate reader M3 (Molecular Devices, LLC., San Jose, CA 95134, USA). The levels of pro-inflammatory cytokines (in pg/mL) in test samples were calculated using the standard curve. […]

[2] = test system: COX-2; experiment: COX-2 ELISA, cytoplasmic extract of LPSEc-stimulated RAW 264.7 cells; type: cell-based, murine; conditions: 10 μM; LPSEc control 8.09 ± 0.08
Experimental: as §1
(§3) The COX-2 level was estimated in the cytoplasmic extract, whereas NF-κB p65, NRF-2 and HO-1 levels were estimated in nuclear extract. The nuclear extraction kit was used to separate the cytoplasm from the nucleus following the manufacturer’s instructions. The cell pellet was incubated in 100 µL of pre-extraction buffer on ice for 10 min, vortexed, and centrifuged. The supernatant cytoplasmic extract was collected. […] The protein concentration in the extracts was determined using Bradford’s reagent. […] The levels were measured in triplicate. The absorbance was measured using a Spectramax M3 microplate reader (Molecular Devices, LLC., San Jose, CA 95134, USA). […]

[3] = Metabolic stability in mouse liver microsomes; type: in vitro ADME; conditions: 37 °C; for Clint: 0.5 µM; for half-life at 0.5 µM: read-out: Half-life (T1/2)
Experimental: (§4) Metabolic stability is an important parameter in the drug discovery pipeline. The metabolic stability of test compounds was evaluated in vitro using human, rat and mouse liver microsomes. The metabolic equation below determines the test compounds’ half-life (T1/2) and intrinsic clearance (Clint). Compound+ NADPH + H^++ O2 → oxidized analyte + NADP^++ H2O
(§5) The metabolic stability of the test compounds in human, rat, and mouse liver microsomes was determined using the method described in our previous work. Five microlitres of auranamide or patriscabratine (0.5 µM) were incubated in a reaction mixture at 37 °C for 0, 3, 6, 15, 30, 45 and 60 min. The concentration of test compounds in the reaction mixture was quantified using Agilent 1290 coupled with Q-TOF. The experiment was carried out in triplicate. The concentration versus time plot calculated the elimination rate constant (Kel). The below formulae were used to calculate the intrinsic clearance (Clint) and half-life (T1/2). The results are expressed as mean ± standard deviation from three experiments. Clint= Kel/0.5 ×52.5 T1/2= 0.693/Kel

[4] = test system: IFN-γ; experiment: IFN-γ ELISA in LPSEc challenged RAW 264.7 cells; type: cell-based, murine; conditions: 10 μM; vs untreated cells; LPSEc alone 8.62 ± 0.26
Experimental: as §1, §2

[5] = Metabolic stability in human liver microsomes; type: in vitro ADME; conditions: 37 °C; for Clint: 0.5 µM; for half-life at 0.5 µM: read-out: Half-life (T1/2)
Experimental: as §4, §5

[6] = test system: RAW264.7 cells; experiment: MTT cytotoxicity on RAW264.7 cells; type: cell-based, murine; conditions: MTT assay, 24 h, RAW 264.7 cells
Experimental: (§6) The cytotoxicity of the test compounds on RAW 264.7 and Hepa-1c1c7 cells was assessed using Vybrant® MTT Cell Proliferation Assay Kit following the manufacturer’s protocol. The cells were seeded at 5 × 10^5 cells/well and incubated for 24 h. Then, various concentrations (100 to 0.01 μM) of the test compounds were added and incubated for a further 24 h. The cell supernatant solution was replaced with the MTT assay solution and incubated for 4 h. The formazan crystals were dissolved in DMSO, and the optical density (OD) of the solution was measured at 570 nm (reference wavelength 630 nm) using Spectramax M3 microplate reader (Molecular Devices, LLC., San Jose, CA 95134, USA). The cell viability was calculated using the following formula, and the results are presented as mean ± SD. Percent cell viability %=ODtreated cells−ODblank/ODuntreated cells− ODblank×100%

[7] = test system: NF-κB p65; experiment: NF-κB p65 ELISA, nuclear extract of LPSEc-stimulated RAW 264.7 cells; type: cell-based, murine; conditions: 10 μM; LPSEc control 8.40 ± 0.09
Experimental: as §1, §3

[8] = test system: NQO1; experiment: NQO1 activity, Prochaska microtiter plate bioassay in Hepa-1c1c7 cells; type: cell-based, murine; conditions: 48 h
Experimental: The NRF2 activation is associated with increased NQO1 activity and an increased concentration of NRF2 and HO-1 in the nucleus. The protective role of NRF2/HO-1 in inflammatory diseases is well documented. Therefore, the NRF2 and HO-1 levels in nuclear extracts of the RAW 264.7 cells were determined using ELISA kits and expressed as fold changes with reference to the negative control. The effect of test compounds on NQO1 activity was determined using the reported method in murine hepatoma cells (Hepa-1c1c7). Dimethyl fumarate was used as a positive control, and 0.1% DMSO was used as a negative control. […] The CD value (concentration of test compound to double the NQO1 activity) of auranamide was 6.81 ± 0.18 μM, while for patriscabratine it was 4.28 ± 0.17 μM.
The “Prochaska” Microtiter Plate Bioassay was used to measure the NQO1 activity in hepatoma cells (Hepa-1c1c7). The cells (5 × 10^5 per well) were seeded and incubated with either auranamide or patriscabratine (10, 1, 0.1, 0.01, and 0.001 µM) or a reference drug (dimethyl fumarate, 10 μM) for 48 h. […] The protein concentration was determined using Bradford’s reagent. […] The optical density of the solution was determined at 610 nm using a Spectramax M3 microplate reader (Molecular Devices, LLC., San Jose, CA 95134, USA), and the values were normalized to the total protein content.

[9] = test system: TNF-α; experiment: TNF-α ELISA in LPSEc challenged RAW 264.7 cells; type: cell-based, murine; conditions: 10 μM; vs untreated cells; LPSEc alone 4.33 ± 0.17
Experimental: as §1, §2

[10] = test system: IL-6; experiment: IL-6 ELISA in LPSEc challenged RAW 264.7 cells; type: cell-based, murine; conditions: 10 μM; vs untreated cells; LPSEc alone 6.91 ± 0.05
Experimental: as §1, §2

[11] = test system: nitric oxide (NO) production; experiment: NO production (Griess assay) in LPSEc-stimulated RAW264.7 cells; type: cell-based, murine; conditions: for reduced the NO production by: 10 μM, LPSEc-stimulated NO = 100%; for IC50: Mus musculus, 100 ng/mL LPSEc, RAW264.7, 24 h, read-out: IC50 (concentration required to reduce the NO production by 50%)
Experimental: The anti-inflammatory activity of the compounds was tested using Escherichia coli lipopolysaccharide (LPSEc) stimulated RAW264.7 cells. Nitric oxide (NO) is a classical marker used to measure inflammation. The Griess assay was used to determine NO production. The cells were stimulated with 100 ng/mL LPSEc and the NO produced was considered to be at 100%. The anti-inflammatory effect of the compounds was assessed by adding the compounds (10, 1, 0.1, 0.01, and 0.001 µM) to the LPSEc stimulated cells. The efficacy of the compounds was assessed by calculating their ability to reduce the LPSEc stimulated NO production. Dimethyl fumarate was used as a positive control, and 0.1% DMSO was used as a negative control. […] The anti-inflammatory effect was not observed at concentrations of less than 0.1 μM.
as §1
LPSEc activates inducible nitric oxide synthase (iNOS) in RAW 264.7 cells and produces nitric oxide (NO), an important mediator of inflammation. The NO content in the supernatant solution was measured using the Griess assay following the manufacturer’s instructions. The optical density (OD) was measured at 540 nm using a Spectramax M3 microplate reader (Molecular Devices, LLC., San Jose, CA 95134, USA). The formula provided below was used to calculate the percentage of NO production. Percent NO production=ODtreated cells− ODblank/ODuntreated cells− ODblank×100%
The activity of the test compounds was tested in triplicate on each plate. The results are presented as mean ± SD. Treatment was performed with either LPSEc alone or LPSEc and test compounds were designated as treated cells. RAW264.7 cells treated with vehicle (0.1% DMSO) were designated as untreated cells.

[12] = test system: Hepa-1c1c7 cells; experiment: MTT cytotoxicity on Hepa-1c1c7 cells; type: cell-based, murine; conditions: MTT assay, 24 h
Experimental: as §6

[13] = test system: NRF2; experiment: NRF2 ELISA, nuclear extract of RAW 264.7 cells; type: cell-based, murine; conditions: 10 μM, vs negative control
Experimental: (§7) The NRF2 activation is associated with increased NQO1 activity and an increased concentration of NRF2 and HO-1 in the nucleus. The protective role of NRF2/HO-1 in inflammatory diseases is well documented. Therefore, the NRF2 and HO-1 levels in nuclear extracts of the RAW 264.7 cells were determined using ELISA kits and expressed as fold changes with reference to the negative control. The effect of test compounds on NQO1 activity was determined using the reported method in murine hepatoma cells (Hepa-1c1c7). Dimethyl fumarate was used as a positive control, and 0.1% DMSO was used as a negative control. […]
(§8) The anti-inflammatory activity of the test compounds was assessed in E. coli lipopolysaccharide (LPSEc)-induced inflammation in RAW 264.7 cells. […] The levels of NO production and pro-inflammatory cytokines (IL-1β, IL-6, IFN-γ and TNF-α) were determined using the supernatant solution. […]
(§9) The COX-2 level was estimated in the cytoplasmic extract, whereas NF-κB p65, NRF-2 and HO-1 levels were estimated in nuclear extract. […] The protein concentration in the extracts was determined using Bradford’s reagent. […] The levels were measured in triplicate. The absorbance was measured using a Spectramax M3 microplate reader (Molecular Devices, LLC., San Jose, CA 95134, USA). […]

[14] = test system: HO-1; experiment: HO-1 ELISA, nuclear extract of RAW 264.7 cells; type: cell-based, murine; conditions: 10 μM, vs negative control
Experimental: as §7, §8, §9

[15] = Metabolic stability in rat liver microsomes; type: in vitro ADME; conditions: 37 °C; for Clint: 0.5 µM; for half-life at 0.5 µM: read-out: Half-life (T1/2)
Experimental: as §4, §5

SMILES | IL-1β fold change [1] [fold change] | COX-2 fold change [2] [fold changes] | Clint [3] [mL/min/g liver] | half-life at 0.5 µM [3] [min] | IFN-γ fold change [4] [fold change] | Clint [5] [mL/min/g liver] | half-life at 0.5 µM [5] [min] | concentrations found to be cytotoxic [6] | NF-κB p65 fold change [7] [fold changes] | CD value (concentration of test compound to double the NQO1 activity) [8] [µM] | TNF-α fold change [9] [fold change] | IL-6 fold change [10] [fold change] | reduced the NO production by [11] [%] | IC50 [11] [nM] | concentrations found to be cytotoxic [12] | NRF2 upregulation [13] [fold] | HO-1 upregulation [14] [fold] | Clint [15] [mL/min/g liver] | half-life at 0.5 µM [15] [min]
O=C(N[C@@H](COC(=O)[C@H](Cc1ccccc1)NC(=O)c1ccccc1)Cc1ccccc1)c1ccccc1 [Auranamide] | 2.05 ± 0.16 | 2.53 ± 0.25 | 16.18 ± 0.43 | 4.5 | 4.06 ± 0.19 | 10.18 ± 0.35 | 7.14 | higher than 10 µM | 2.13 ± 0.20 | 6.81 ± 0.18 | 2.42 ± 0.24 | 2.85 ± 0.31 | 33.22 | 1220 ± 950 | higher than 10 µM | 2.66 ± 0.16 | 1.74 ± 0.09 | 17.22 ± 0.46 | 4.23
CC(=O)NC(COC(=O)C(Cc1ccccc1)NC(=O)c1ccccc1)Cc1ccccc1 (centres unmarked) [Patriscabratine] | 1.96 ± 0.12 | 2.17 ± 0.31 | 18.64 ± 0.51 | 3.9 | 4.15 ± 0.21 | 13.27 ± 0.42 | 5.48 | higher than 10 µM | 2.25 ± 0.27 | 4.28 ± 0.17 | 2.53 ± 0.18 | 2.51 ± 0.38 | 30.84 | 1850 ± 930 | higher than 10 µM | 2.37 ± 0.06 | 1.83 ± 0.07 | 18.53 ± 0.56 | 3.93
